Source: US12415786B2, “Substituted 2-heteroarylaminobenzenes and the salts thereof and their use as herbicidal agents” (Bayer Aktiengesellschaft, priority 2019, dated 2025)

What was measured:
Assay type in all cases: in vivo
[1] = tested on: Agrostis tenuis; test: Herbicidal early post-emergence action (96-well microtiter plates), AGSTE; conditions: 1900 g/ha, scored 9 to 12 days after treatment, 100% = plants have died, 0% = like untreated control plants
Text: (§1) In the examples and tables below, the following abbreviations are used: • Undesired Plants/Weeds: • ABUTH: Abutilon theophrasti • AGSTE: Agrostis tenuis • AMARE Amaranthus retroflexus • ECHCG: Echinochloa crus-galli • LOLRI: Lolium rigidum • MATIN: Matricaria inodora • POAAN: Poa annua • SETVI: Setaria viridis • STEME: Stellaria media A. Herbicidal Early Post-Emergence Action Seeds of monocotyledonous and dicotyledonous weed plants were placed in 96-well microtiter plates in quartz sand and grown in a climatized chamber under controlled growth conditions. 5 to 7 days after sowing, the test plants were treated at the cotyledon stage. The compounds according to the invention, formulated in the form of emulsion concentrates (EC), were applied with a water application rate of the equivalent of 2200 liters per hectare. After the test plants had been left to stand in the climatized chamber for 9 to 12 days under optimum growth conditions, the effect of the preparations was scored visually in comparison to untreated controls. Here, for example, 100% activity=the plants have died, 0% activity=like untreated control plants. Tables A1 to A2 below show the effects of selected compounds of the general formula (I) according to Table 1 above on various harmful plants and an application rate corresponding to 1900 g/ha, which were obtained by the experimental procedure mentioned above.

[2] = tested on: Poa annua; test: Herbicidal early post-emergence action (96-well microtiter plates), POAAN; conditions: 1900 g/ha, scored 9 to 12 days after treatment, 100% = plants have died, 0% = like untreated control plants
Text: as §1

[3] = tested on: Amaranthus retroflexus; test: Herbicidal post-emergence action (greenhouse pots), AMARE; conditions: 1280 g/ha, visual rating about 3 weeks after treatment vs untreated controls
Text: In the examples and tables below, the following abbreviations are used: • Undesired Plants/Weeds: • ABUTH: Abutilon theophrasti • AGSTE: Agrostis tenuis • AMARE Amaranthus retroflexus • ECHCG: Echinochloa crus-galli • LOLRI: Lolium rigidum • MATIN: Matricaria inodora • POAAN: Poa annua • SETVI: Setaria viridis • STEME: Stellaria media A. Herbicidal Early Post-Emergence Action Seeds of mono- and dicotyledonous weed plants were placed in plastic pots in sandy loam soil (doubly sown with in each case one species of mono- or dicotyledonous weed plants per pot), covered with soil and cultivated in a greenhouse under controlled growth conditions. 2 to 3 weeks after sowing, the test plants were treated at the one-leaf stage. The compounds of the invention, formulated in the form of wettable powders (WP) or as emulsion concentrates (EC), were applied onto the green parts of the plants as aqueous suspension or emulsion with addition of 0.5% additive at a water application rate of 600 liters per hectare (converted). After the test plants had been kept in the greenhouse under optimum growth conditions for about 3 weeks, the activity of the preparations was rated visually in comparison to untreated controls. For example, 100% activity=the plants have died, 0% activity=like untreated control plants. Tables B1-B8 below show the effects of selected compounds of the general formula (I) according to Table 1 above on various harmful plants and an application rate corresponding to 1280 g/ha, which were obtained by the experimental procedure mentioned above.

[4] = tested on: Setaria viridis; test: Herbicidal pre-emergence action (greenhouse pots), SETVI; conditions: 1280 g/ha, visual scoring after about 3 weeks vs untreated controls
Text: (§2) In the examples and tables below, the following abbreviations are used: • Undesired Plants/Weeds: • ABUTH: Abutilon theophrasti • AGSTE: Agrostis tenuis • AMARE Amaranthus retroflexus • ECHCG: Echinochloa crus-galli • LOLRI: Lolium rigidum • MATIN: Matricaria inodora • POAAN: Poa annua • SETVI: Setaria viridis • STEME: Stellaria media A. Herbicidal Early Post-Emergence Action Seeds of mono- and dicotyledonous weed plants were placed in plastic pots in sandy loam soil (doubly sown with one species each of mono- or dicotyledonous weed plants per pot) and covered with soil. The compounds of the invention, formulated in the form of wettable powders (WP) or as emulsion concentrates (EC), were then applied onto the surface of the covering soil as aqueous suspension or emulsion with addition of 0.5% additive at a water application rate of 600 liters per hectare (converted). After the treatment, the pots were placed in a greenhouse and kept under good growth conditions for the test plants. After about 3 weeks, the effect of the preparations was scored visually in comparison with untreated controls as percentages. For example, 100% activity=the plants have died, 0% activity=like untreated control plants. Tables C1-C8 below show the effects of selected compounds of the general formula (I) according to Table 1 above on various harmful plants and an application rate corresponding to 1280 g/ha, which were obtained by the experimental procedure mentioned above.

[5] = tested on: Stellaria media; test: Herbicidal pre-emergence action (greenhouse pots), STEME; conditions: 1280 g/ha, visual scoring after about 3 weeks vs untreated controls
Text: as §2

[6] = tested on: Poa annua; test: Herbicidal pre-emergence action (greenhouse pots), POAAN; conditions: 1280 g/ha, visual scoring after about 3 weeks vs untreated controls
Text: as §2

[7] = tested on: Amaranthus retroflexus; test: Herbicidal pre-emergence action (greenhouse pots), AMARE; conditions: 1280 g/ha, visual scoring after about 3 weeks vs untreated controls
Text: as §2

Structure (SMILES) | AGSTE (herbicidal activity, scored visually in comparison to untreated controls) [1] [%] | POAAN (herbicidal activity, scored visually in comparison to untreated controls) [2] [%] | herbicidal activity AMARE [3] [%] | herbicidal activity SETVI [4] [%] | herbicidal activity STEME [5] [%] | herbicidal activity POAAN [6] [%] | herbicidal activity AMARE [7] [%]
COc1cccc(Nc2ncc(Cl)cn2)c1Oc1ccc(F)cc1 [Example 1-324] | 100 | 80 |  |  |  |  | 
N#Cc1cccc(Nc2ccc(Cl)cn2)c1Oc1ccc(F)c(F)c1 [Example 1-129] | 100 |  | 100 | 90 | 90 |  | 
N#Cc1cccc(Nc2ncccn2)c1Oc1cc(F)cc(F)c1 [Example 1-254] |  |  | 100 | 100 |  | 90 | 100
N#Cc1cccc(Nc2ncc(F)cn2)c1Oc1ccccc1F [Example 1-265] | 80 |  | 100 | 90 | 100 | 100 | 100
CN(C)c1cccc(Nc2ncc(Cl)cn2)c1Oc1ccc(F)cc1 [Example 1-366] | 100 | 80 |  |  |  |  | 
Cc1ccc(Nc2cccc(C#N)c2Oc2ccc(F)cc2)nc1 [Example 1-149] | 100 |  | 100 |  |  |  | 100
CC(C)Oc1ccc(Nc2cccc(C#N)c2Oc2ccc(F)cc2)nc1 [Example 1-342] |  |  | 100 | 100 |  |  | 100
N#Cc1cccc(Nc2ncc(F)cn2)c1Oc1cc(F)cc(F)c1 [Example 1-273] | 80 |  | 100 | 90 |  |  | 100
N#Cc1cccc(Nc2ccc(Br)cn2)c1Oc1ccc(F)c(F)c1 [Example 1-144] | 100 | 100 |  |  |  |  | 
Fc1ccc(Oc2c(Cl)cccc2Nc2ccc(Cl)cn2)cc1 [Example 1-75] | 100 | 80 |  |  |  |  | 
Clc1ccc(Oc2c(Cl)cccc2Nc2ncc(Cl)cn2)cc1 [Example 1-341] | 100 | 100 | 100 |  | 90 |  | 
N#Cc1cccc(Nc2ncc(Cl)cn2)c1Oc1cccc(Cl)c1 [Example 1-287] | 80 |  | 100 | 100 |  | 100 | 100
N#Cc1cccc(Nc2ncccn2)c1Oc1ccccc1F [Example 1-246, 2-(2-Fluorophenoxy)-3-(pyrimidin-2-ylamino)benzonitrile] | 80 |  | 100 | 100 | 100 |  | 100
CCSc1cccc(Nc2ncc(Cl)cn2)c1Oc1ccc(F)cc1 [Example 1-376] | 80 | 80 |  |  |  |  | 
N#Cc1cccc(Nc2ncc(F)cn2)c1Oc1cc(F)ccc1F [Example 1-271] | 80 | 80 | 100 | 90 |  | 90 | 100
Cc1cccc(Nc2ccc(Cl)cn2)c1Oc1ccc(F)cc1 [Example 1-79] | 80 | 100 |  |  |  | 100 | 

Structure (SMILES) | AGSTE (herbicidal activity, scored visually in comparison to untreated controls) [1] [%] | POAAN (herbicidal activity, scored visually in comparison to untreated controls) [2] [%] | herbicidal activity AMARE [3] [%] | herbicidal activity SETVI [4] [%] | herbicidal activity STEME [5] [%] | herbicidal activity POAAN [6] [%] | herbicidal activity AMARE [7] [%]
CSc1cccc(Nc2ncc(Cl)cn2)c1Oc1ccc(F)cc1 [Example 1-328] | 80 | 80 |  |  |  |  | 
N#Cc1cccc(Nc2ncc(Cl)cn2)c1Oc1ccccc1F [Example 1-284] | 100 | 100 | 100 | 100 | 90 |  | 100
N#Cc1cccc(Nc2ncc(Cl)cn2)c1Oc1cccc(C(F)(F)F)c1 [Example 1-297] | 100 | 80 | 100 | 100 |  |  | 
Fc1ccc(Oc2c(Br)cccc2Nc2ncc(Cl)cn2)cc1 [Example 1-358] | 100 | 100 |  |  |  |  | 
N#Cc1cccc(Nc2ccc(Br)cn2)c1Oc1ccc(F)cc1 [Example 1-143] | 80 |  |  |  |  |  | 
COc1cccc(Oc2c(C#N)cccc2Nc2ncc(F)cn2)c1 [Example 1-281] | 100 |  |  |  |  |  | 
N#Cc1cccc(Nc2ncccn2)c1Oc1cc(F)ccc1F [Example 1-252] |  |  |  |  |  |  | 90
Fc1ccc(Oc2c(F)cccc2Nc2ccc(Cl)cn2)cc1 [Example 1-40] | 80 | 80 |  |  |  |  | 
N#Cc1ccc(Nc2cccc(C#N)c2Oc2ccc(F)c(F)c2)nc1 [Example 1-146] | 80 |  |  |  |  |  | 
N#Cc1cccc(Nc2ncc(Cl)cn2)c1Oc1cc(F)cc(F)c1 [Example 1-292] | 100 | 80 | 100 | 90 |  |  | 100
N#Cc1cccc(Nc2ccc(Cl)cn2)c1Oc1ccc(F)cc1 [Example 1-124] | 100 | 100 | 100 |  |  |  | 
N#Cc1cccc(Nc2ncc(Cl)cn2)c1Oc1cc(F)ccc1F [Example 1-290] | 80 |  | 100 |  |  | 90 | 90
CNc1cccc(Nc2ncc(Cl)cn2)c1Oc1ccc(F)cc1 [Example 1-365] | 100 |  |  |  |  |  | 
Nc1c([N+](=O)[O-])cc(Nc2ncc(Cl)cn2)c(Oc2ccc(F)cc2)c1Cl [Example 2-101, 2-Chloro-4-(5-chloropyrimidin-2-ylamino)-3-(4-fluorophenoxy)-6-nitroaniline] | 100 | 80 |  |  |  |  | 
N#Cc1ccc(Nc2cccc(C#N)c2Oc2ccc(F)cc2)nc1 [Example 1-145] |  | 80 |  |  |  |  | 90
